The values below come from ChEMBL document CHEMBL1201862, “PubChem BioAssay data set” (2004).

Calls of active or inactive are those of the source. Where only a bound is given, the exact number is not on record here.

Experiment [1] concerns the target T1, Endoribonuclease toxin MazF (Escherichia coli K-12, UniProt P0AE70).
T1 sequence (P0AE70 whole entry): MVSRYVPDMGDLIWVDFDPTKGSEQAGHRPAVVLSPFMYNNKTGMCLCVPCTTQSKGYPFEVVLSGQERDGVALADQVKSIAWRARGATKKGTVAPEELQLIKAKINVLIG
The experiment in a line: activation of MazEF endoribonuclease cleavage – biochemical, fluorescence, single-stranded RNA substrate, uHTS hits, dose response (AID 588481). The class given is functional.

For experiment [2], the target named is T1, Endoribonuclease toxin MazF. The experiment in a line: substrate-only fluorescence increase artefacts – biochemical, single-stranded RNase substrate, counter-screen for MazEF activator project, dose response (AID 588502). The class given is functional. (In general: A counterscreen serves to expose hits that act by an unwanted route or on another target.)

The target is the same in experiment [3]. The experiment in a line: MazEF toxin-antitoxin RNase activation – biochemical, fluorescence, single-stranded RNA substrate, SAR follow-up (AID 588603). It is filed as functional.
The target is the same in experiment [4]. The experiment in a line: SAR analysis of small molecule activators of the MazEF TA System via a fluorescence-based single-stranded RNase assay counterscreen. [Related pubchem assays (depositor defined):AID504720, AID504743]. It is filed as functional.
Experiment [5] has as its target T2, Zinc finger protein mex-5 (Caenorhabditis elegans, UniProt Q9XUB2).
T2 sequence (Q9XUB2 whole entry): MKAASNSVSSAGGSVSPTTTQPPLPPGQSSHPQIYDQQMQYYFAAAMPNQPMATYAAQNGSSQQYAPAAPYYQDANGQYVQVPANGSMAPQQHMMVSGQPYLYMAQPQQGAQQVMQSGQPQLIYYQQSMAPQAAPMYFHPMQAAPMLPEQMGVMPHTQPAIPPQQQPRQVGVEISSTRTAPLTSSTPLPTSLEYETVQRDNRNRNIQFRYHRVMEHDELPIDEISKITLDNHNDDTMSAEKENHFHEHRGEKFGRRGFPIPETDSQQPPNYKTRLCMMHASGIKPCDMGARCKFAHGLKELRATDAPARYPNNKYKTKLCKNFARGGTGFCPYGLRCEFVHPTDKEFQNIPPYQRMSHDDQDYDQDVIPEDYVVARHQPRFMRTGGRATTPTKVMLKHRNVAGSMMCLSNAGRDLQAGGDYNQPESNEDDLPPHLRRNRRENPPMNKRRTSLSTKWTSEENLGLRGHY
The experiment in a line: potency of MEX-5 RNA-binding blockers – biochemical, C. elegans, fluorescence polarization, dose response (AID 1960). Background: Fluorescence polarisation rises when a labelled molecule tumbles more slowly, as on binding a larger partner.

A further experiment deals with Genome polyprotein (dengue virus type 2, UniProt P29990). The experiment in a line: flavivirus cap methylation enzyme inhibition – biochemical, confirmation dose response, primary screen (AID 588689). The class given is functional.
Experiment [6] has as its target T3, RNA-binding protein pos-1 (Caenorhabditis elegans, UniProt G5EF15).
T3 sequence (G5EF15 whole entry): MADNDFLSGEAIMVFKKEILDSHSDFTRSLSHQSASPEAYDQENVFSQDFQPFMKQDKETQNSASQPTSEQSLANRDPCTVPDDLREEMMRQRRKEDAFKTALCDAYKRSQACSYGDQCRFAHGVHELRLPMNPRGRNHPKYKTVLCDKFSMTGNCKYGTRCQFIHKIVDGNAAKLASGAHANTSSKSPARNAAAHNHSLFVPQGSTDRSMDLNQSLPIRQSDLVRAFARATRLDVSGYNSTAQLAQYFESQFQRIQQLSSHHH
The experiment can be described thus: disruptors of C. elegans POS-1 RNA interaction – biochemical, fluorescence polarization, dose response (AID 1964).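 Also: purified POS-1 fused to maltose binding protein made in E. coli; potency of compounds blocking POS-1 binding to fluorescent RNA.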

A further experiment concerns MEF. The experiment can be described thus: SAR analysis of small molecule cytotoxicity of MazEF TA System activators in embryonic fibroblast (MEF) cells. [Related pubchem assays (depositor defined):AID504720, AID504743]. It is filed as functional. Conditions: Mus musculus.
The next experiment has as its target Cysteine protease ATG4B (Homo sapiens, UniProt Q9Y4P1). The class given is functional.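 Also: Fluorescence-based dose-response confirmation assay measuring inhibition of ATG4B activity.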
The next experiment has as its target Phospholipase A2 (Homo sapiens, UniProt P04054). The class given is functional.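 Also: confirmatory dose-response counterscreen on phospholipase A2, testing hits that came from an ultra-high-throughput screen for ATG4B inhibitors.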
The nature of experiment [7]: fluconazole-exposed Candida albicans growth modulators – fluorescence, retest, confirmation (AID 2467). The class given is functional, cell-based.
Experiment [8] in a line: Vero E6 cell cytotoxicity, dose response, cytotoxicity control for non-replicating M. tuberculosis project, secondary assay (AID 492998). It is filed as functional, VeroE6. Conditions: Vero C1008.
The nature of experiment [9]: THP-1 cell cytotoxicity, dose response, cytotoxicity control for non-replicating M. tuberculosis project (AID 489025). It is filed as functional.
The nature of another experiment: cells. The class given is functional.
Experiment [10] can be described thus: NIH-3T3 fibroblast cytotoxicity, dose response, cytotoxicity control, cell-based, fluorescence, Alamar Blue, secondary assay (AID 2327).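 Also: NIH-3T3 mouse fibroblasts cultured with fluconazole at 8 µg/mL.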 It is filed as functional. In general terms: Alamar Blue is a resazurin reagent that responds to reducing activity.
Experiment [11] in a line: HepG2 cell cytotoxicity, dose response, cytotoxicity control for non-replicating M. tuberculosis project (AID 489018). The class given is functional. Conditions: Mycobacterium tuberculosis.
Experiment [12] addresses Serine/threonine-protein phosphatase (Candida dubliniensis (strain CD36 / CBS 7987 / NCPF 3949 / NRRLY-17841) (Yeast), UniProt B9W6M3). The experiment can be described thus: blockers of CaCl2-induced CDRE-lacZ signaling – S. cerevisiae, luminescence, secondary, dose response (AID 2388).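 Also: yeast reporter cells carrying a calcineurin-responsive lacZ construct stimulated with calcium chloride; luminescent beta-galactosidase reporter signal in whole cells rather than isolated phosphatase activity; potency for inhibition where a drop in reporter signal means calcineurin blockade.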 The class given is functional, cell-based.
Experiment [13] deals with ATP-dependent molecular chaperone HSP82 (Candida albicans (strain WO-1) (Yeast), UniProt C4YTQ8). The experiment in a line: steroid-induced GRE reporter decrease in yeast – S. cerevisiae, luminescence, Hsp90 inhibitor project, dose response (AID 2400).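 Also: beta-galactosidase luminescence from glucocorticoid response element reporter as proxy for Hsp90 function; inhibitor potency where signal loss means Hsp90 inhibition.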 It is filed as functional, cell-based.
The target of experiment [14] is Nuclear receptor subfamily 0 group B member 1 (Homo sapiens, UniProt P51843). The experiment in a line: Luminescence-based cell-based high throughput dose response assay for inhibitors of the orphan nuclear receptor subfamily 0, group B, member 1 (DAX1; NR0B1). [Related pubchem assays (depositor defined):AID504766, AID504790]. The class given is functional.
Experiment [15] deals with HEK293. The experiment in a line: cells. The settings on record: Homo sapiens. The class given is functional, cell-based.
Experiment [16] in a line: suppression of NO production in INS-1E cells – cell-based, Griess absorbance, dry powder, set 3, dose response (AID 488870). It is filed as functional. The settings on record: Rattus norvegicus.
In experiment [17] the test system is INS1. The experiment in a line: INS-1E mitochondrial potential loss inhibitors – cell-based, JC-1 fluorescence, dry powder, set 2, dose response (AID 488867). The class given is functional. Conditions: Rattus norvegicus.
For experiment [18], the system named is INS1. The experiment can be described thus: beta-cell survival under cytokine stress – INS-1E, ATP luminescence, dry powder, dose response (AID 488844). It is filed as functional, cell-based. The settings on record: Rattus norvegicus.
Experiment [19] deals with HEK293. The experiment can be described thus: EBV LMP1 TES2 canonical NF-kB signalling blockers – cell-based, HEK293, luciferase, cherry-pick, dose response (AID 588343). It is filed as functional. The settings on record: Homo sapiens.
The target in experiment [20] is Latent membrane protein 1 (Human herpesvirus 4 (strain B95-8), UniProt P03230). The experiment in a line: LMP1 TES1 pathway selectivity over dsRED control – imaging, HEK293T, dual-color eGFP/dsRED, cherry-picks, selectivity assay for LMP1 NF-kB inhibitor project, dose response (AID 588398). The class given is functional, cell-based.
The nature of experiment [21]: reduction of Shn3 3'UTR-driven luciferase in osteoblasts – cell-based, Clone20 osteoblasts, firefly luciferase, cherry-picked, dose response (AID 624132).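 Also: firefly luciferase luminescence from reporter carrying the Shn3 3'UTR in osteoblasts.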 The class given is functional.
Experiment [22] has as its target COUP transcription factor 2 (Homo sapiens, UniProt P24468). The experiment can be described thus: Luminescence-based cell-based high throughput dose response assay to identify inhibitors of COUP-TFII (NR2F2). The class given is functional.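 Also: HEK293 cells transiently cotransfected with COUP-TFII expression vector and reporter; luciferase reporter luminescence driven by COUP-TFII from the pX2-168 reporter plasmid.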
A short description of experiment [23]: non-specific 3'UTR reporter inhibition in Clone20-Shn3RL – cell-based, Renilla luciferase, cherry-picked, counter-screen for Shn3 inhibitor project, dose response (AID 624133). It is filed as functional.
Experiment [24] can be described thus: loss of viability in HepG2 cells – cell-based, CellTiter-Glo, cherry-picked, cytotoxicity control for Shn3 inhibitor project, dose response (AID 624134). It is filed as functional.
Experiment [25] addresses Dual specificity protein kinase CLK1 (Homo sapiens, UniProt P49759). The experiment can be described thus: inhibition of human CLK1 activity – biochemical, cherry-picked samples, selectivity assay for Dyrk1A inhibitor project, dose response (AID 588811).
A further experiment has as its target Prothrombin (Homo sapiens, UniProt P00734). The experiment in a line: Thrombin 1536 HTS Dose Response Confirmation. [Related pubchem assays: 1046 (Thrombin 1536 HTS; hits were confirmed in this assay)]. The class given is functional.
Experiment [26] concerns the target Dual specificity tyrosine-phosphorylation-regulated kinase 1A (Rattus norvegicus, UniProt Q63470). It is filed as biochemical, Homo sapiens.
In experiment [27] the target is T4, Heat shock factor protein 1 (Mus musculus, UniProt P38532).
T4 sequence (P38532 whole entry): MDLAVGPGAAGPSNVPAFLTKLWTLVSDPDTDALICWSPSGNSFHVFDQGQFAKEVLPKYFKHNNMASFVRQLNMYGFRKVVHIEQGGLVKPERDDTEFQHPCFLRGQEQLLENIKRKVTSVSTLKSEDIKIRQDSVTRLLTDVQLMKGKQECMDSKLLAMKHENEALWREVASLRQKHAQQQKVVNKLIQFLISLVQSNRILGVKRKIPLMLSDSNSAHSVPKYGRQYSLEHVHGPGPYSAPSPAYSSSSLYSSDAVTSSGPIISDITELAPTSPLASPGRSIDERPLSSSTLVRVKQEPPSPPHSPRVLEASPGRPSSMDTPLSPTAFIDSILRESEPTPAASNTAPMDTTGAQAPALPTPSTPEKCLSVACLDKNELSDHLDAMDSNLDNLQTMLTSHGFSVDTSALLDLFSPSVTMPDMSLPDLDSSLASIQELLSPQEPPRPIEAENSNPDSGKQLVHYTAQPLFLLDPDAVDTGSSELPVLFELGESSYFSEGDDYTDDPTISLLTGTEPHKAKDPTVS
The experiment can be described thus: decrease of HSF1-responsive luciferase luminescence – cell-based, NIH3T3, dose retest, confirmation (AID 2382).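 Also: NIH3T3 fibroblasts with HSF1-driven luciferase reporter stressed by proteasome inhibitor MG132; luminescence from HSF1-driven luciferase expression after 8 hours of MG132 stress.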 The class given is functional.

Cysteine protease ATG4B, sequence (Q9Y4P1 whole entry): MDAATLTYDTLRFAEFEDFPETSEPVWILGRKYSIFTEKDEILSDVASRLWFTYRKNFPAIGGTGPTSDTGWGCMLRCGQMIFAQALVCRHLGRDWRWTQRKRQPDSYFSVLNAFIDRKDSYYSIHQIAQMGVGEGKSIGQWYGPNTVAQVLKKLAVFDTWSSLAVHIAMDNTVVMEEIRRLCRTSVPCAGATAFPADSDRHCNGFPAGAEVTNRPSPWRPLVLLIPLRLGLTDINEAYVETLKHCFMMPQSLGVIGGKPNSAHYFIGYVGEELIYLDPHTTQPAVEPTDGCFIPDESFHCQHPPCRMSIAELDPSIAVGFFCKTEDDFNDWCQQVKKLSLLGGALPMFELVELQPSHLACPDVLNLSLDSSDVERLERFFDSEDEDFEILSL
Genome polyprotein, sequence (P29990 2492-3391 limits assumed): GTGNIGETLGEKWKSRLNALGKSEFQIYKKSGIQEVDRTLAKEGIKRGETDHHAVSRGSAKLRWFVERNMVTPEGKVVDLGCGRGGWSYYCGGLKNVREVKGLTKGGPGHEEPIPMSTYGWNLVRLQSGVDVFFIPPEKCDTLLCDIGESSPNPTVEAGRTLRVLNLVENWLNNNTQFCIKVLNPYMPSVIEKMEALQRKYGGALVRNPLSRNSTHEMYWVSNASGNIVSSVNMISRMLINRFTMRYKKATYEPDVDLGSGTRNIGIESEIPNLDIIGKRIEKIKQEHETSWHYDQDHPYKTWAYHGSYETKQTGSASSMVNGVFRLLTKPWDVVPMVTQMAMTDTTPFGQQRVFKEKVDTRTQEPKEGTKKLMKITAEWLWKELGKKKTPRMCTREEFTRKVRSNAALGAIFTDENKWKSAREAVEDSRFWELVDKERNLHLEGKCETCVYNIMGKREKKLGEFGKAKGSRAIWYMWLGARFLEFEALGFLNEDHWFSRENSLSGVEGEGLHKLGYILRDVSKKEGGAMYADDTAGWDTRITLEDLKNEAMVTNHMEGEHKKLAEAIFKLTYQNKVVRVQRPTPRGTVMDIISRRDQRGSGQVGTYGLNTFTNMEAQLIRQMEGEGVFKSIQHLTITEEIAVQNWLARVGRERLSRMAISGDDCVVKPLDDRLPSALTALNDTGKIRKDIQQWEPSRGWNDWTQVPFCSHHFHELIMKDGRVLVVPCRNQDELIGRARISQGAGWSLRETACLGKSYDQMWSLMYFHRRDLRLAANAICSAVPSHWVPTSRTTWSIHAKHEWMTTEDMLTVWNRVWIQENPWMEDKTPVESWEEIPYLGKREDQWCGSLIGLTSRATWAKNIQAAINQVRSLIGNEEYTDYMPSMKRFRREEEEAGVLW
Nuclear receptor subfamily 0 group B member 1, sequence (P51843 whole entry): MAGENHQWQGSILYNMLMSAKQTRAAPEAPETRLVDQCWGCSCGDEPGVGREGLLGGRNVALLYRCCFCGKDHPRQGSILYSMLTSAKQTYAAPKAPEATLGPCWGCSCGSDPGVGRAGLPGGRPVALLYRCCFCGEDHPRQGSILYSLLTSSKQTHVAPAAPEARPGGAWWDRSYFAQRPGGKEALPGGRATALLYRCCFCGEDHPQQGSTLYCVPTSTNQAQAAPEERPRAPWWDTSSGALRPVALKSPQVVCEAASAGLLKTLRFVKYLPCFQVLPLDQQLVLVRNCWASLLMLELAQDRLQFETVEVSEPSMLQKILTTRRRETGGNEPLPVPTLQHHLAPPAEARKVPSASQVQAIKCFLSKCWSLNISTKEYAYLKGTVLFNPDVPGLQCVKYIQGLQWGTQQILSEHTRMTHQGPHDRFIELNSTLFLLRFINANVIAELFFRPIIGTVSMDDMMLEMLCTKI
Latent membrane protein 1, sequence (P03230 whole entry): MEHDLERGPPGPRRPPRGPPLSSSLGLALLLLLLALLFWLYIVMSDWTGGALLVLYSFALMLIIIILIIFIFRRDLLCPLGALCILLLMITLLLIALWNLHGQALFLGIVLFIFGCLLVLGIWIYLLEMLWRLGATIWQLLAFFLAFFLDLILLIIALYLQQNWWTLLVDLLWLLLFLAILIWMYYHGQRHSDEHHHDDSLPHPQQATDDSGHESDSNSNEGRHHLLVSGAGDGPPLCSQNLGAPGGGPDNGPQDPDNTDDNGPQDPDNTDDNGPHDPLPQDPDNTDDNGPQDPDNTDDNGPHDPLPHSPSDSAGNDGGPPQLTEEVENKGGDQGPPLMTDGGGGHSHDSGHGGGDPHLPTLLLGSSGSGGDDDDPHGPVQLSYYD
ATP-dependent molecular chaperone HSP82, sequence (C4YTQ8 whole entry): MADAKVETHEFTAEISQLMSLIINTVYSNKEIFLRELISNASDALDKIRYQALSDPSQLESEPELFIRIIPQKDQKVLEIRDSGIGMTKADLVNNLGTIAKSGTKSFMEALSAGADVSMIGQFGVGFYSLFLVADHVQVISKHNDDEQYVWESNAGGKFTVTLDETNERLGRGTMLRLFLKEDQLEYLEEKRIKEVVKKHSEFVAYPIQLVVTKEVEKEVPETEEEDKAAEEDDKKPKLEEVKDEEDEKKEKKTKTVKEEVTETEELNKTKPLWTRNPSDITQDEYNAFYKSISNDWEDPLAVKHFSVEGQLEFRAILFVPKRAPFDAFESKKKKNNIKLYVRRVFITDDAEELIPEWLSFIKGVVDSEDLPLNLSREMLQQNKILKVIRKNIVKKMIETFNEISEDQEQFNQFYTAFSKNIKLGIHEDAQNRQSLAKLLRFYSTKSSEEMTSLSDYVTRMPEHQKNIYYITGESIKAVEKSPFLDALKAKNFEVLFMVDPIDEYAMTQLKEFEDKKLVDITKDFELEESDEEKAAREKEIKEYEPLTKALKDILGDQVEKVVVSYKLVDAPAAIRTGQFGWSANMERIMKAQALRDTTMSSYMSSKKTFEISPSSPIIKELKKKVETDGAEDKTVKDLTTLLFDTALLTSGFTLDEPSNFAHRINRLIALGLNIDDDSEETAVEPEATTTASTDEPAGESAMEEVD
Serine/threonine-protein phosphatase, sequence (B9W6M3 whole entry): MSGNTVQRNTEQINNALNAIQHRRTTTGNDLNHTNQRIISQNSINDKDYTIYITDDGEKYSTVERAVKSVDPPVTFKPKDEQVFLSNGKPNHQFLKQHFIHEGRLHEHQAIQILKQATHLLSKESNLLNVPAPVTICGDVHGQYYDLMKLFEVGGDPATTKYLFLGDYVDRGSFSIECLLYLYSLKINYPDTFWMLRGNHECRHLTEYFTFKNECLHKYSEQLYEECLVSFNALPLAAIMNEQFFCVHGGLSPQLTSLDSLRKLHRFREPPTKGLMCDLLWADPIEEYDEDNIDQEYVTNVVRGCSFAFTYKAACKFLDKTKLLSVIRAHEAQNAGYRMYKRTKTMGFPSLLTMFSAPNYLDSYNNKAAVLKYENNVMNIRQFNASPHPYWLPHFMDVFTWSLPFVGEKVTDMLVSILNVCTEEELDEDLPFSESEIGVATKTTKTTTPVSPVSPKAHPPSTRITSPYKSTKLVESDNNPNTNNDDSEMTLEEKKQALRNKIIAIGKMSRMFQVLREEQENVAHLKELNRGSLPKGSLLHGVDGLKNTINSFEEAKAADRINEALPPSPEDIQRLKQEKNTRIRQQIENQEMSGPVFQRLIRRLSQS
Dual specificity protein kinase CLK1, sequence (P49759 whole entry): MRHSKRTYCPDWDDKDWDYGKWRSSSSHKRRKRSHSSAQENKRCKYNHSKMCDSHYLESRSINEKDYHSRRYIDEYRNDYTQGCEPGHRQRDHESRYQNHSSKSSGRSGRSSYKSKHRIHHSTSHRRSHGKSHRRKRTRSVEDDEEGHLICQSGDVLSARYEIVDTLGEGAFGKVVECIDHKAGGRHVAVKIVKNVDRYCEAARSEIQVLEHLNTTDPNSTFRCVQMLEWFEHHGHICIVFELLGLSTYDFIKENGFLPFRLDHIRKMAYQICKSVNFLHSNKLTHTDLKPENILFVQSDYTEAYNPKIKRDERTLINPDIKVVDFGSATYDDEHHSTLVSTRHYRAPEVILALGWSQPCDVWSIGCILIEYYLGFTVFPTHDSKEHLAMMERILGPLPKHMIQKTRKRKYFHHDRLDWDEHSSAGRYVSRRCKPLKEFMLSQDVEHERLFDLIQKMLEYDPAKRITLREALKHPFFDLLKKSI
COUP transcription factor 2, sequence (P24468 whole entry): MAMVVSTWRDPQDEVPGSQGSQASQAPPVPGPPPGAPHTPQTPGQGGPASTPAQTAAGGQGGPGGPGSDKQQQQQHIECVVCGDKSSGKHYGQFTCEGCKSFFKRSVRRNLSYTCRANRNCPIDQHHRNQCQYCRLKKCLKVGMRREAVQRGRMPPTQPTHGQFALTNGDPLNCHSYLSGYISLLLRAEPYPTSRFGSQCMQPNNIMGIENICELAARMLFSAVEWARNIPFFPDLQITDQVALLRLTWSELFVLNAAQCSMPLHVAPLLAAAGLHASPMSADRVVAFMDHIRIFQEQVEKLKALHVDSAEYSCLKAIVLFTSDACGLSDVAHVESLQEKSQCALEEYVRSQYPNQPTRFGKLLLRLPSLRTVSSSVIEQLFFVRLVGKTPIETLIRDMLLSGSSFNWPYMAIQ
Phospholipase A2, sequence (P04054 whole entry): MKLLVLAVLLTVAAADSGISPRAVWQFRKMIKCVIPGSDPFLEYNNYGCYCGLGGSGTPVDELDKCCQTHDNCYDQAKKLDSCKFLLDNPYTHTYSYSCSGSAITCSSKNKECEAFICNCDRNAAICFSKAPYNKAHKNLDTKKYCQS

As to `C=CCOc1cccc(C2C(C(=O)c3ccc(C)o3)=C(O)C(=O)N2c2nccs2)c1` (stereo not drawn), the EC50 (in general, the concentration at which the effect is half-maximal) in experiment [1] is 11.4 µM (active); in experiment [2], > 99 µM (inactive); in [3] it was 22.3 µM (inactive); in [4] it was 44.5 µM (inactive); in [5] it was 0.851 µM (active); in experiment [6], > 300 µM (inconclusive). For the same compound, at Genome polyprotein, the IC50 – broadly, the concentration that gives 50% inhibition – was 5.64 µM (active). For the same compound, in the experiment with MEF, the CC50 – broadly, the concentration at which the toxic effect on the cells reaches its halfway point – is > 99 µM (inactive).

`COc1ccc(C(=O)Nc2cc(C(=O)c3ccccc3)c(C)oc2=O)cc1`: the values for the IC50 on Cysteine protease ATG4B and at Phospholipase A2 were 11.3 µM (active) and 11.7 µM (active), respectively.

As to `Cc1ccc(C)c(-c2nnc(NC(=O)c3ccco3)o2)c1`, the concentration for a half-maximal effect (EC50) in experiment [7] was 0.695 µM (active); in [10] it was > 160 µM (inactive); in [12], > 180 µM (inactive); in experiment [13], > 160 µM (inactive). The CC50 in [8] was 15.8 µM (active); in [9] it was > 40 µM (active); in [11] it was > 20 µM (active). The IC50 in the experiment “cells” was 2.58 µM (active).

For the compound `Nn1c(SCc2c(F)cccc2F)nnc1-c1ccccn1`, the IC50 (in [14]; in the experiment with HEK293 [15]) was > 67.6 µM (inactive) throughout.

For `Cc1ccc(S(=O)(=O)N(C)C[C@@H]2Oc3c(NC(=O)Nc4ccc(F)cc4)cccc3C(=O)N([C@H](C)CO)C[C@H]2C)cc1`, the AC50 (in general, the midpoint of the concentration-response curve, whichever way the signal moves) in [16] is 63.4 µM (active); in the experiment on INS1 [17] it was 106 µM (active); in the experiment with INS1 [18], 73.9 µM (active).

As to `O=C(NC1CCCCCCC1)c1cc(COc2ccc3ncccc3c2)on1`, the concentration at half-maximal activity (AC50) was 39.6 µM (active) in the experiment with HEK293 [19]; 60.1 µM (active) in experiment [20]; 1.06 µM (active) in experiment [21]; 11.8 µM (active) in [23]; 2.97 µM (active) in experiment [24]. Also, in experiment [22], the IC50 is 4.41 µM (active).

`COc1ccc(-c2n[nH]cc2-c2ccc3c(c2)OCCO3)c(O)c1`: the AC50 in experiment [25] is 8.33 µM (active); in [26], 12 µM (active). Besides, the concentration for half-maximal inhibition (IC50) against Prothrombin is > 50 µM (not active). The EC50 in experiment [27] is 2.8 µM (active).
